We go through five compounds from patent US10294202B2, “Pyrrolidinones as herbicides” (FMC Corporation, priority 2013, dated 2019).

In the assay the test system is bermudagrass. As to the kind of experiment: Test C pre-/postemergence herbicide test. In kind it is in vivo, Cynodon dactylon. The text has this:
Seeds of plant species selected from blackgrass (Alopecurus myosuroides), ryegrass, Italian (Italian ryegrass, Lolium multiflorum), wheat (winter wheat, Triticum aestivum), galium (catchweed bedstraw, Galium aparine), corn (Zea mays), crabgrass, large (large crabgrass, Digitaria sanguinalis), foxtail, giant (giant foxtail, Setaria faberii), johnsongrass (Sorghum halepense), lambsquarters (Chenopodium album), morningglory (Ipomoea coccinea), nutsedge, yellow (yellow nutsedge, Cyperus esculentus), pigweed (Amaranthus retroflexus), ragweed (common ragweed, Ambrosia elatior), soybean (Glycine max), barnyardgrass (Echinochloa crus-galli), oilseed rape (Brassica napus), waterhemp (common waterhemp, Amaranthus rudis), kochia (Kochia scoparia), oat, wild (wild oat, Avena fatua), surinam grass (Brachiaria decumbens), foxtail, green (green foxtail, Setaria viridis), goosegrass (Eleusine indica), bromegrass, downy (downy bromegrass, Bromus tectorum), nightshade (eastern black nightshade, Solanum ptycanthum), cocklebur (common cocklebur, Xanthium strumarium), cupgrass, woolly (woolly cupgrass, Eriochloa villosa), bermudagrass (Cynodon dactylon), sunflower, (common oilseed sunflower, Helianthus annuus), Russian thistle (Salsola kali) and velvetleaf (Abutilon theophrasti) were planted into a blend of loam soil and sand and treated preemergence with test chemicals formulated in a non-phytotoxic solvent mixture which included a surfactant. At the same time, plants selected from these crop and weed species and also barley (winter barley, Hordeum vulgare), […]), chickweed (common chickweed, Stellaria media), deadnettle (henbit deadnettle, Lamium amplexicaule), and canarygrass (littleseed canarygrass, Phalaris minor) were planted in pots containing Redi-Earth® planting medium (Scotts Company, 14111 Scottslawn Road, Marysville, Ohio 43041) comprising spaghnum peat moss, vermiculite, wetting agent and starter nutrients and treated with postemergence applications of test chemicals formulated in the same manner. Plants ranged in height from 2 to 18 cm (1- to 4-leaf stage) for postemergence treatments. Treated plants and controls were maintained in a greenhouse for 13 to 15 days, after which time all species were compared to controls and visually evaluated. Plant response ratings, summarized in Table C, are based on a scale of 0 to 100 where 0 is no effect and 100 is complete control. A dash (-) response means no test result.

The mark [1] stands for this setting: Preemergence, 62 g ai/ha, scale 0 to 100.
[2] abbreviates: Preemergence, 125 g ai/ha, scale 0 to 100 (0 no effect, 100 complete control).
The mark [3] stands for this setting: Preemergence, 31 g ai/ha, scale 0 to 100 (0 no effect, 100 complete control).
Where [4] appears, read: Preemergence, 250 g ai/ha, scale 0 to 100 (0 no effect, 100 complete control).
The mark [5] stands for this setting: Postemergence, 31 g ai/ha, scale 0 (no effect) to 100 (complete control).
Where [6] appears, read: Postemergence, 62 g ai/ha, scale 0 to 100 (0 no effect, 100 complete control).
The mark [7] stands for this setting: Postemergence, 125 g ai/ha, scale 0 to 100 (0 no effect, 100 complete control).

Take `O=C1NCC(c2ccc(Cl)c(Cl)c2)C1C(=O)Nc1ccccc1F` (racemic) [Compound 14]: the “Plant response rating, Bermudagrass” value under setting [1] is given as 90; the “Plant response rating, Bermudagrass” value under setting [2] came out at 95; the “Plant response rating, Bermudagrass” value under setting [4] is given as 95. Also, the “Bermudagrass plant response rating” value under setting [3] is reported as 75.
For the compound `O=C1NCCC1C(=O)N(c1ccc(F)c(F)c1)c1ccccc1F` (centres unmarked) [Compound 5, N-(3,4-difluorophenyl)-N-(2-fluorophenyl)-2-oxo-3-pyrrolidinecarboxamide], the “Plant response rating, Bermudagrass” value runs as follows: under setting [1], 0; under setting [2], 20; under setting [4], 45. The “Bermudagrass plant response rating” value under setting [3] was 0.
As to `O=C1NCC(c2cc(F)c(F)c(F)c2)C1C(=O)Nc1cccc(F)c1F` (centres unmarked) [Compound 48], the “Plant response rating, Bermudagrass” value is, setting by setting: (Postemergence, 16 g ai/ha, scale 0 to 100 (0 no effect, 100 complete control)) 0; under setting [5], 0; under setting [6], 0; under setting [7], 10; under setting [1], 0; under setting [2], 0. The “Plant response rating, Bermudagrass” value (Preemergence, 16 g ai/ha, scale 0 to 100) is listed as 0. The “Bermudagrass plant response rating” value under setting [3] was found to be 0.
With `O=C1NCC(c2ccc(F)c(Cl)c2)C1C(=O)Nc1ccccc1F` (centres unmarked) [Compound 60], the “Plant response rating, Bermudagrass” value reads like this: under setting [5], 0; under setting [6], 0; under setting [7], 0; under setting [1], 0; under setting [2], 0. Also, the “Bermudagrass plant response rating” value under setting [3] is recorded as 0.
As for `O=C1NCC(c2cccc(OC(F)(F)F)c2)C1C(=O)Nc1ccccc1F` (centres unmarked) [Compound 69], the “Bermudagrass plant response rating” value (Preemergence, 31 g ai/ha, scale 0 to 100, 0 is no effect and 100 is complete control) was determined as 35. The “Plant response rating, Bermudagrass” value reads like this: under setting [1], 35; under setting [2], 50. In addition, the “Plant response rating (scale of 0 to 100), Bermudagrass” value (Preemergence, 250 g ai/ha) turned out to be 55.
